Experiment [1] concerns the target T1, Indoleamine 2,3-dioxygenase 1 (Homo sapiens, UniProt P14902). Put plainly: Inhibition of recombinant human IDO1.
For experiment [2], the target named is T1, Indoleamine 2,3-dioxygenase 1. Put plainly: Inhibition of IDO1 in human HeLa cells. In kind it is cell-based.

SMILES strings stand for the structures. A value given as a limit tells only on which side of the number the result lay.

T1 sequence (P14902 whole entry): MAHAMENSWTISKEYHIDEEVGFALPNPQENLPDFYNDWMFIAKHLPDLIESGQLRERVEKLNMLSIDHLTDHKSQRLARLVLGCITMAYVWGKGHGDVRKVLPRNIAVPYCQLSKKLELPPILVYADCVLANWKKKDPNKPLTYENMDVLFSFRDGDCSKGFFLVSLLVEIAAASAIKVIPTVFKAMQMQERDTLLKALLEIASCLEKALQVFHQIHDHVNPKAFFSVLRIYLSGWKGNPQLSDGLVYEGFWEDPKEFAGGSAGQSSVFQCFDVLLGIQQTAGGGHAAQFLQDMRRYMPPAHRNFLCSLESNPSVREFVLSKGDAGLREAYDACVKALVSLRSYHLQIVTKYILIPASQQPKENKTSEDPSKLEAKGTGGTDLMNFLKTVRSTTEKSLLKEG

For the compound `CC(C)CN(CC(C)C)c1ccc(/C(=N/O)Nc2ccc(F)c(Br)c2)cc1NC(=O)Nc1cncnc1`, the IC50 (usually the concentration that gives 50% inhibition) was more than 3000 nM in experiment [1] and 860 nM in experiment [2].
For the compound `CCCNC(=O)Nc1cc(/C(=N/O)Nc2ccc(F)c(Br)c2)ccc1N(CC(C)C)CC(C)C`, the IC50 was determined as 2900 nM in experiment [1] and 2610 nM in experiment [2].
Consider `CC(C)CN(CC(C)C)c1ccc(/C(=N/O)Nc2ccc(F)c(Br)c2)cc1NC(=O)NC1CCCCC1`, for which the IC50 in experiment [1] is more than 3000 nM; in experiment [2], 1340 nM.
In the same order, the values of `Cc1ccc(NC(=O)Nc2cc(/C(=N/O)Nc3ccc(C)cc3)ccc2N(CC(C)C)CC(C)C)cc1` are 1560 nM and 1340 nM.
In the case of `Cc1ccc(NC(=O)Nc2cc(/C(=N/O)Nc3ccc(F)c(Br)c3)ccc2N(CC(C)C)CC(C)C)cc1`, the IC50 stood at 2300 nM in experiment [1] and 760 nM in experiment [2].
In the same order, the values of `CC(C)CN(CC(C)C)c1ccc(/C(=N/O)Nc2ccc(F)c(Br)c2)cc1NC(=O)Nc1ccc(C(F)(F)F)cc1` are more than 3000 nM and 2090 nM.
On to `CCCCNC(=O)Nc1cc(/C(=N/O)Nc2ccc(F)c(Br)c2)ccc1N(CC(C)C)CC(C)C`, for which the figures for the IC50 in experiment [1] and in experiment [2] were more than 3000 nM and 3110 nM, respectively.
In the same order, the values of `CC(C)CN(CC(C)C)c1ccc(/C(=N/O)Nc2ccc(F)c(Br)c2)cc1NC(=O)Nc1ccc(Cl)cc1` are 1490 nM and 440 nM.
With `Cc1ccc(N/C(=N\O)c2ccc(N(CC(C)C)CC(C)C)c(NC(=O)Nc3cncnc3)c2)cc1`, the IC50 in experiment [1] amounted to 2320 nM; in experiment [2], 440 nM.
Turning to `CCCNC(=O)Nc1nonc1/C(=N/O)Nc1ccc(F)c(Br)c1`, the IC50 in experiment [1] was 127 nM.

(Values after ChEMBL document CHEMBL5032524, “Discovery of novel IDO1 inhibitors targeting the protein's apo form through scaffold hopping from holo-IDO1 inhibitor” (Bioorg Med Chem Lett, 2021).)
